Results on 33 compounds are retold here after patent US10308637B2 (LifeSci Pharmaceuticals, Inc., priority 2015, dated 2019).

The nature of this test: Contact Assay (percentage inhibition from fluorescence intensity). Format: biochemical. As for the experimental part:
The percentage inhibition was calculated using the following equation:
[formula] where, Mean(BG) is the average value of the fluorescence intensity of the background wells and Mean(PC) is the average value of the fluorescence intensity of the positive control wells.
Table 4 provides the EC50 values of various compounds disclosed herein.
The compound `Cc1cc(N)nc(C)c1CNC(=O)c1ccnc(Cc2ccc3ncc(C(F)(F)F)cc3c2)c1` [Example 228, N-((6-amino-2,4-dimethylpyridin-3-yl)methyl)-2-((3-(trifluoromethyl)quinolin-6-yl)methyl)isonicotinamide] registered an EC50 not above 100 nM.

In turn, `Cc1nc(N)ccc1CNC(=O)c1ccnc(Cc2ccc3ncc(C(F)(F)F)cc3c2)c1` [Example 229, N-((6-amino-2-methylpyridin-3-yl)methyl)-2-((3-(trifluoromethyl)quinolin-6-yl)methyl)isonicotinamide] came in with an EC50 not above 100 nM.

As to `O=C(NCc1cc2c(Cl)c[nH]c2cc1F)c1ccnc(Cc2ccc3ncc(C(F)(F)F)cc3c2)c1` [Example 230, N-((3-chloro-6-fluoro-1H-indol-5-yl)methyl)-2-((3-(trifluoromethyl)quinolin-6-yl)methyl)isonicotinamide], the EC50 was 100 to 1000 nM.

`O=C(NCc1cnc2[nH]cc(Cl)c2c1)c1ccnc(Cc2ccc3ncc(C(F)(F)F)cc3c2)c1` [Example 231, N-((3-chloro-1H-pyrrolo[2,3-b]pyridin-5-yl)methyl)-2-((3-(trifluoromethyl)quinolin-6-yl)methyl)isonicotinamide] yielded an EC50 of 100 to 1000 nM.

`Nc1nccc2cc(CNC(=O)c3ccnc(Cc4ccc5ncc(C(F)(F)F)cc5c4)c3)ccc12` [Example 232, N-((1-aminoisoquinolin-6-yl)methyl)-2-((3-(trifluoromethyl)quinolin-6-yl)methyl)isonicotinamide] returned an EC50 not above 100 nM.

With `O=C(NCc1ccc2[nH]cc(Cl)c2c1F)c1ccnc(Cc2ccc3ncc(C(F)(F)F)cc3c2)c1` [Example 234, N-((3-chloro-4-fluoro-1H-indol-5-yl)methyl)-2-((3-(trifluoromethyl)quinolin-6-yl)methyl)isonicotinamide], the EC50 was 100 to 1000 nM.

Regarding `Cc1cc(N)nc(C)c1CNC(=O)c1ccnc(Cc2cc(S(N)(=O)=O)c3ncc(Cl)cc3c2)c1` [Example 235, N-((6-amino-2,4-dimethylpyridin-3-yl)methyl)-2-((3-chloro-8-sulfamoylquinolin-6-yl)methyl)isonicotinamide], the EC50 is not above 100 nM.

In turn, `Cc1nc(N)ccc1CNC(=O)c1ccnc(Cc2cc(S(N)(=O)=O)c3ncc(Cl)cc3c2)c1` [Example 236] displayed an EC50 not above 100 nM.

On to `Cc1cc(N)nc(C)c1CNC(=O)c1ccnc(Cc2ccc3nc(C)c(Cl)cc3c2)c1` [Example 238, N-((6-amino-2,4-dimethylpyridin-3-yl)methyl)-2-((3-chloro-2-methylquinolin-6-yl)methyl)isonicotinamide], for which the EC50 is not above 100 nM.

In turn, `Cc1nc2ccc(Cc3cc(C(=O)NCc4ccc(N)nc4C)ccn3)cc2cc1Cl` [Example 239, N-((6-amino-2-methylpyridin-3-yl)methyl)-2-((3-chloro-2-methylquinolin-6-yl)methyl)isonicotinamide] came in with an EC50 of 100 to 1000 nM.

In the case of `Cc1cc(N)nc(C)c1CNC(=O)c1ccnc(Cc2cc(CN)c3ncc(Cl)cc3c2)c1` [Example 241, N-((6-amino-2,4-dimethylpyridin-3-yl)methyl)-2-((8-(aminomethyl)-3-chloroquinolin-6-yl)methyl)isonicotinamide], the EC50 is not above 100 nM.

`Cc1cc(N)nc(C)c1CNC(=O)c1ccnc(Cc2ccc3ncc(C4CC4)cc3c2)c1` [Example 243, N-((6-amino-2,4-dimethylpyridin-3-yl)methyl)-2-((3-cyclopropylquinolin-6-yl)methyl)isonicotinamide] returned an EC50 not above 100 nM.

`O=C(NCc1cc2c(Cl)c[nH]c2cc1F)c1ccnc(Cc2ccc3ncc(C4CC4)cc3c2)c1` [Example 245, N-((3-chloro-6-fluoro-1H-indol-5-yl)methyl)-2-((3-cyclopropylquinolin-6-yl)methyl)isonicotinamide] came in with an EC50 of 100 to 1000 nM.

Regarding `O=C(NCc1cnc2[nH]cc(Cl)c2c1)c1ccnc(Cc2ccc3ncc(C4CC4)cc3c2)c1` [Example 246, N-((3-chloro-1H-pyrrolo[2,3-b]pyridin-5-yl)methyl)-2-((3-cyclopropylquinolin-6-yl)methyl)isonicotinamide], the EC50 is 100 to 1000 nM.

`Nc1nccc2cc(CNC(=O)c3ccnc(Cc4ccc5ncc(C6CC6)cc5c4)c3)ccc12` [Example 247, N-((1-aminoisoquinolin-6-yl)methyl)-2-((3-cyclopropylquinolin-6-yl)methyl)isonicotinamide] gave an EC50 not above 100 nM.

In the case of `O=C(NCc1ccc2[nH]cc(Cl)c2c1F)c1ccnc(Cc2ccc3ncc(C4CC4)cc3c2)c1` [Example 248, N-((3-chloro-4-fluoro-1H-indol-5-yl)methyl)-2-((3-cyclopropylquinolin-6-yl)methyl)isonicotinamide], the EC50 lay in the range of 100 to 1000 nM.

For the compound `O=C(NCc1n[nH]c2ccc(Cl)cc12)c1ccnc(Cc2ccc3ncc(C4CC4)cc3c2)c1` [Example 249, N-((5-chloro-1H-indazol-3-yl)methyl)-2-((3-cyclopropylquinolin-6-yl)methyl)isonicotinamide], the EC50 was in the range of 100 to 1000 nM.

`Cc1nc(N)ccc1CNC(=O)c1ccnc(Cc2cc(CN)c3ncc(Cl)cc3c2)c1` [Example 253, N-((6-amino-2-methylpyridin-3-yl)methyl)-2-((8-(aminomethyl)-3-chloroquinolin-6-yl)methyl)isonicotinamide] returned an EC50 not above 100 nM.

`Cc1cc(N)nc(C)c1CNC(=O)c1ccnc(Cc2ccc3ncc(C(C)C)cc3c2)c1` [Example 254, N-((6-amino-2,4-dimethylpyridin-3-yl)methyl)-2-((3-isopropylquinolin-6-yl)methyl)isonicotinamide] registered an EC50 not above 100 nM.

With `CCCc1cnc2ccc(Cc3cc(C(=O)NCc4c(C)cc(N)nc4C)ccn3)cc2c1` [Example 255, N-((6-amino-2,4-dimethylpyridin-3-yl)methyl)-2-((3-propylquinolin-6-yl)methyl)isonicotinamide], the EC50 is not above 100 nM.

`COc1cnc2ccc(Cc3cc(C(=O)NCc4c(C)cc(N)nc4C)ccn3)cc2c1` [Example 264, N-((6-amino-2,4-dimethylpyridin-3-yl)methyl)-2-((3-methoxyquinolin-6-yl)methyl)isonicotinamide] yielded an EC50 not above 100 nM.

Compound `Cc1cc(N)nc(C)c1CNC(=O)c1ccnc(Cc2cc(-c3nnn[nH]3)c3ncc(Cl)cc3c2)c1` [Example 272, N-((6-amino-2,4-dimethylpyridin-3-yl)methyl)-2-((3-chloro-8-(1H-tetrazol-5-yl)quinolin-6-yl)methyl)isonicotinamide] returned an EC50 of 100 to 1000 nM.

`Cc1cc(N)nc(C)c1CNC(=O)c1ccnc(C(O)c2ccc3ncc(Cl)cc3c2)c1` (stereo not drawn) [Example 275, N-((6-amino-2,4-dimethylpyridin-3-yl)methyl)-2-((3-chloroquinolin-6-yl)(hydroxy)methyl)isonicotinamide]: the EC50 was 100 to 1000 nM.

As to `Cc1cc(N)nc(C)c1CNC(=O)c1ccnc(C(N)c2ccc3ncc(Cl)cc3c2)c1` (stereo not drawn) [Example 276, 2-[Amino-(3-chloro-quinolin-6-yl)-methyl]-N-(6-amino-2,4-dimethyl-pyridin-3-ylmethyl)-isonicotinamide], the EC50 fell in the range of 100 to 1000 nM.

For the compound `Cc1cc(N)nc(C)c1CNC(=O)c1ccnc(C(C)(O)c2ccc3ncc(Cl)cc3c2)c1` (stereo not drawn) [Example 277, N-((6-amino-2,4-dimethylpyridin-3-yl)methyl)-2-(1-(3-chloroquinolin-6-yl)-1-hydroxyethyl)isonicotinamide], the EC50 fell in the range of 100 to 1000 nM.

For `Cc1nc(N)ccc1CNC(=O)c1ccnc(Cc2ccc3ncc(CC(F)F)cc3c2)c1` [Example 279, N-((6-amino-2-methylpyridin-3-yl)methyl)-2-((3-(2,2-difluoroethyl)quinolin-6-yl)methyl)isonicotinamide], the EC50 lay in the range of 100 to 1000 nM.

As to `CCc1cnc2ccc(Cc3cc(C(=O)NCc4ccc5c(N)nccc5c4)ccn3)cc2c1` [Example 283, N-((1-aminoisoquinolin-6-yl)methyl)-2-((3-ethylquinolin-6-yl)methyl)isonicotinamide], the EC50 was not above 100 nM.

Turning to `CCc1cnc2ccc(Cc3cc(C(=O)NCc4c(C)cc(N)nc4C)ccn3)cc2c1` [Example 286, N-((6-amino-2,4-dimethylpyridin-3-yl)methyl)-2-((3-ethylquinolin-6-yl)methyl)isonicotinamide], the EC50 was not above 100 nM.

The compound `Cc1cnc2c(S(N)(=O)=O)cc(Cc3cc(C(=O)NCc4cc5c(Cl)c[nH]c5cc4F)ccn3)cc2c1` [Example 287, N-((3-chloro-6-fluoro-1H-indol-5-yl)methyl)-2-((3-methyl-8-sulfamoylquinolin-6-yl)methyl)isonicotinamide] returned an EC50 not above 100 nM.

For the compound `Cc1cnc2c(S(N)(=O)=O)cc(Cc3cc(C(=O)NCc4n[nH]c5ccc(Cl)cc45)ccn3)cc2c1` [Example 288, N-((5-chloro-1H-indazol-3-yl)methyl)-2-((3-methyl-8-sulfamoylquinolin-6-yl)methyl)isonicotinamide], the EC50 is 100 to 1000 nM.

`Cc1cnc2c(S(N)(=O)=O)cc(Cc3cc(C(=O)NCc4ccc5c(N)nccc5c4)ccn3)cc2c1` [Example 289, N-((1-aminoisoquinolin-6-yl)methyl)-2-((3-methyl-8-sulfamoylquinolin-6-yl)methyl)isonicotinamide] displayed an EC50 not above 100 nM.

The compound `Cc1cnc2c(S(N)(=O)=O)cc(Cc3cc(C(=O)NCc4ccc5[nH]cc(Cl)c5c4F)ccn3)cc2c1` [Example 290, N-((3-chloro-4-fluoro-1H-indol-5-yl)methyl)-2-((3-methyl-8-sulfamoylquinolin-6-yl)methyl)isonicotinamide] displayed an EC50 of 100 to 1000 nM.

Regarding `Cc1cnc2c(S(N)(=O)=O)cc(Cc3cc(C(=O)NCc4cnc5[nH]cc(Cl)c5c4)ccn3)cc2c1` [Example 291, N-((3-chloro-1H-pyrrolo[2,3-b]pyridin-5-yl)methyl)-2-((3-methyl-8-sulfamoylquinolin-6-yl)methyl)isonicotinamide], the concentration giving a half-maximal response (EC50) was not above 100 nM.
